Measured values as given in patent publication EP0374249A1, “METHOD OF STERILIZING PLANT POLLEN” (VSESOJUZNY NAUCHNO-ISSLEDOVATELSKY INST. SELSKOKHOZYAISTV. …, priority 1988, dated 1989).

Tested on: Linie BK-119
Assay: Field test of pollen sterilisation, sunflower line BK-119
Assay type: in vivo, Sonnenblume
Conditions: period V, 0.5% emulsion; for Prozentsatz der Sterilität: 3 kg/ha (N-Karbamoylmaleaminsäure) or 0.1% emulsion, 1 kg/ha (N-(3-Dimethylaminopropyl)-maleaminsäure); for Ansetzen von Ächänen bei freier Bestäubung in %: 3 kg/ha or 0.1% emulsion, 1 kg/ha, free pollination
Text: Die gametozide Aktivität der erfindungsgemässen Sterilisationsmittel war im Feldversuch in verschiedenen Bodenklimatischen Zonen mit Teilstücken von 10 m^2 Grösse in drei- bis viermaliger Wiederholung nachgewiesen. Jedes Sterilisationsmittel wurde mindestens 5 Jahre lang geprüft.
Die Entwicklung der Perioden der Organogenese wird zytologischüberwacht. Die Behandlung von Pflanzen mit dem Sterilisationsmittel erfolgt am Anfang der fünften Periode der Organogenese nach Kupermann.
Zur Kontrolle der chemischen Sterilisation des Sonnenblumenpollens werden für jede Verbindung 45 behandelte Pflanzen jeder Wiederholung benutzt, wobei 15 Pflanzen von denen zwecks Selbstbestäurun^g des Blütenkörbchens isoliert werden, 15 andere Pflanzen mit einem Pollengemisch, gesammelt von 20 bis 25 behandelten isolierten Körbchen, bestäubt werden und 15 Pflanzen für freie Bestäubeung gelassen werden, damit das Ansetzen von Ächänen mit dem Pollen der Vaterform kontrolliert werden kann.
Man beurteilt die Pollensterilität von Pflanzen der Sonnenblume nach der Pollenfertilität und -keimfähigkeit, nach den morphologischen Besonderheiten von Spermien und nach der Fähigkeit von Achänen zum Ansetzen bei der Bestäubung der behandelten isolierten Pflanzen mit dem Pollen der unbehandelten väterlichen Form. Die Lebensfähigkeit der Eizelle wird nach der Samenbildung von behandelten Pflanzen bei freier Bestäubung der väterlichen Form ermittelt.
Pflanzen der Sonneblume Sorte Peredovik und Linie BK-119 werden in der V. Periode der Organogenese (nach Kupermann) mit einer 0,5%igen wässrigen Emulsion der N-Karbamoylmaleaminsäure behandelt. Die Emulsion enthält 0,01 Masse% Dimethylsulfoxid und 0,1 Masse% Kalziumalkylbenzolsulfonat mit 12 bis 14 Kohlenstoffatomen. Der Verbrauch an Präparat beträgt 3 kg/ha. Die gleichen Pflanzen werden mit einer 0,1masseprozentigen wässrigen Emulsion der N-(3-Dimethylaminopropyl)-maleaminsäure behandelt. Im letzten Falle enthält die Emulsion 0,01 Masse% Dodezylsulfat und 0,1 Masse% Kalziumalkylbenolsulfonat mit 12 bis 14 Kohlensotffatomen. Der Verbrauch an Präparat beträgt 1 kg/ha. Als Kontrolle dienen Pflanzen, behandelt mit einem Verdünner.ohne Sterilisationsmittel. Die Prufergenisse sind in der Tabelle 14 dargestellt. […] Periode der Organogenese erhalten.

SMILES	Prozentsatz der Sterilität	Ansetzen von Ächänen bei freier Bestäubung in %
NC(=O)NC(=O)/C=C\C(=O)O [Beispiel 61, N-Karbamoylmaleaminsäure]	100,0%	82,5%
CN(C)CCCNC(=O)/C=C\C(=O)O [Beispiel 64, N-(3-Dimethylaminopropyl)-maleaminsäure]	100,0%	80,4%
